{"source": "patent US20080188449A1", "about": "“Treatment of Conditions Caused By Calcium Abnormalities” (priority 2004, published 2008)", "key": {"HeLa cells [1]": {"system": "HeLa cells", "assay": "[^3H]-triptolide competition binding in HeLa cells", "settings": "1 or 10 μM competitor one hour before [^3H]-triptolide, HeLa cells", "description": "To gain insight into triptolide's mechanism of action Applicants sought to determine its specific binding activity utilizing a system employing [^3H]-triptolide. In addition to competition with 1 μM or 10 μM unlabeled triptolide, Applicants also measured the binding affinities of triptolide analogs (FIG. 1A). These analogs have been previously described and differ structurally from triptolide in the hydrolysis of the 12,13 epoxide (2), and formation of the ketone at the C-14 hydroxyl (3) (FIG. 1A). […] The effective interaction of these analogs with a presumed triptolide binding entity led us to their use in subsequent experiments addressing the mode of triptolide's biological functions.\nTo address first the nature of triptolide binding within the cell, Applicants determined this interaction was reversible as [^3H]-triptolide labeling was out competed by subsequent addition of excess unlabeled triptolide (FIG. 2A). […] Although 25% of the total cellular counts (i.e., representing bound triptolide) were found in the cytosolic fraction, it is uncertain whether this is specific binding or simply that free triptolide had dissociated from its binding protein due to experimental manipulation during fractionation. Since the data thus far had only shown binding within whole cells, Applicants next determined if this triptolide binding protein could be further characterized and/or enriched by its association with chromatographic reagents. HeLa cells were once again labeled with [^3H]-triptolide and total cell lysates were then passed over the anion exchange resin DEAE. Batch elutions with increasing NaCl concentrations were used to disassociate interactions of variable charge. […] Importantly, Applicants also observed that [^3H]-triptolide would only bind to intact cells in culture but would not bind to any component of a total cellular lysate as assessed by interaction with the DEAE resin. Negative results for a triptolide binding interaction were also observed with DNA-cellulose and the cation exchange resin SPFF (sulphopropyl).\nLabeling studies were performed by the addition of approximately 30 nM [^3H]-triptolide directly into the culture media for one hour at 37° C. For cold competition studies, 1 μM triptolide was incubated with the cells for one hour before or after the addition of [^3H]-triptolide. Triptolide analog studies followed a similar protocol where concentrations used for competition were either 1 or 10 μM added before [^3H]-triptolide. Medium was removed and cells were washed 3× in cold PBS. Total cell lysates were prepared (150 mM NaCl, 50 mM Tris-HCl pH 7.4, 1 mM EDTA, 1% Triton X-100, and Complete protease inhibitors (Roche)) and protein was quantitated before measuring the [^3H]-triptolide binding activity via liquid scintillation."}, "HeLa cells [2]": {"system": "HeLa cells", "assay": "Viability of parvalbumin-GFP transfected HeLa cells", "type": "cell-based", "settings": "100 nM", "from_the_text": "To investigate further the role of calcium in triptolide function Applicants utilized a system to buffer intracellular calcium levels. Various GFP-parvalbumin (PV) fusion proteins can be specifically localized to either the nucleus or the cytoplasm through a nuclear localization or exclusion signal (NLS or NES, respectively) (Pusl, et al., 2002, J Biol Chem 277, 27517-27527). Parvalbumin has two EF-hand calcium binding domains and can efficiently reduce the availability of free calcium in the cell (Pauls, et al., 1996, Biochim Biophys Acta 1306, 39-54). HeLa cells were transiently transfected with the GFP vector control, NES-PV-GFP, or NLS-PV-GFP in calcium containing media and efficient expression of each construct was determined by GFP localization (FIG. 4A). Normal cell growth was first assessed throughout 48 hours with each of the constructs. […] For triptolide experiments, cells were transfected and allowed to express the construct for 24 hours before the addition of 100 nM triptolide. After 24 and 48 hours of treatment, cells were assessed for viability. […]\nAll parvalbumin-GFP constructs and control vectors (Pusl, et al., 2002, J Biol Chem 277, 27517-27527) were a gift of Anton Bennett (Yale University). […] Cell viability was assessed at 24 and 48 hours post triptolide addition by morphology and trypan blue dye exclusion."}}, "data": [{"smiles": "CC(C)[C@]12O[C@H]1[C@@H]1O[C@]13[C@]1(O[C@H]1C[C@H]1C4=C(CC[C@@]13C)C(=O)OC4)[C@@H]2O", "note": "[triptolide, Triptolide]", "values": [{"measurement": "displacement of [^3H]-triptolide binding", "setting": "HeLa cells [1]", "result": "significantly competed"}, {"measurement": "cell death", "setting": "HeLa cells [2]; all transfection conditions, 48 hours", "result": "complete cell death"}, {"measurement": "cells rounded and no longer viable", "setting": "HeLa cells [2]; control GFP vector or NLS-PV-GFP, 24 hours", "result": 50, "unit": "%"}]}]}
